# Measurements taken from patent US10111847B2, “Compounds and methods for modulating vascular injury” (The Regents of the University of California, priority 2012, dated 2018).
# Legend:
# IKKα/β subunit [1] = experiment: TNFα induced phosphorylation of IKKα/β in sv-ECs, western blot; assay type: cell-based, human; details: 100 nm, 30 min; TNFα 1 ng/ml 15 min
# Method: (§1) Mar-1. VSMCs and ECs were lysed in buffer (20 mM Tris-Hcl, 137 mM NaCl, 10% Glycerol, 1% NP-40) with protease and phosphatase inhibitors (Halt inhibitor capsules, Pierce, Inc) by sonication on ice. The lysates were instantly snap frozen in liquid nitrogen and thawed back later for western blotting. After centrifugation (15,000 g for 20 minutes), the whole cell extract (supernatant) was collected and was heated at 100° C. in Laemlli buffer for 6 minutes. Lysates were run on Mini-Protean TGX gels
# (§2) (Biorad) and transferred on PVDF membranes which were probed with appropriate primary and secondary antibodies and visualized for quantitation using q-dot nanocrystals (Life Technologies, Inc).
# (§3) Cells were pretreated with 100 nm of 7S/7R-Maresin-1 for 30 min, followed by TNFα (10 ng/ml for VSMC and 1 ng/ml for EC) for 15 min. Whole cell lysates were collected and probed for pan and phospho IKK (Cell Signaling Inc.).
# (§4) FIG. 18. IKK-phospho and total IKK western blotting image is representative of three independent experiments. Bar graph represents net quantitative densitometry analysis. N=3. P≤0.05, One-way ANOVA with Dunnett's post hoc test. *: P≤0.05 compared to control, unpaired t-test. †: P≤0.05 compared to TNFα, unpaired t-test. Error bars: SEM.
# [2] = system: human saphenous vein vascular smooth muscle (sv-VSMC) cells; experiment: TNFα induced superoxide production (DHE) in sv-VSMC (Maresin-1); assay type: cell-based; details: 100 nM; TNFα 10 ng/ml 4 hr
# Method: Mar-1. Cells were grown in 8-well chamber slides at a density of 15000 cells/well for 2 days for VSMCs and 50000 cells/well for 2 days for ECs in a 96 well plate. After treatments, cells were incubated with dihydroethidium (DHE, 3 μM, Invitrogen) or CellRox (Invitrogen Inc, 5 μM for ECs) in media for 30 minutes at 37° C. in a humidified chamber with 5% CO2 protected from light. DAPI nuclear counter staining was utilized for DHE staining. For DHE, fluorescence was detected with TRITC filter allowing the detection of the DHE emission wavelength of 590-620 nm. Fluorescence quantitation was performed using ImageJ analysis software. For ECs, fluorescence measurements were taken using a Spectramax M2e plate reader.
# FIGS. 13A-13D. Representative merged images of DHE staining, counterstained with DAPI. (A), Negative control. (B), TNFα at 10 ng/ml for 4 hr. […] (E) Quantitative comparison of DHE staining intensity in the nucleus of human saphenous vein vascular smooth muscle (sv-VSMC) cells, treated with TNFα and 7S and 7R-Maresin-1 with and without pertussis toxin. (F) Quantitative comparison of cellular ROS production by CellRox (Life technologies, Carlsbad, Calif.) in human saphenous vein endothelial (EC) cells treated with TNFα (1 ng/nil) and 7S-Maresin-1 (N>=3). […]
# IKKα/β subunit [3] = experiment: TNFα induced phosphorylation of IKKα/β in sv-VSMCs, western blot; assay type: cell-based, human; details: 100 nm, 30 min; TNFα 10 ng/ml 15 min
# Method: as §1, §2, §3, §4
# carotid artery = experiment: Mouse carotid artery ligation model, neointima formation; assay type: in vivo, FVB Mice; details: intraperitoneal 100 ng/dose on days 0, 1, 3, 5 and 7; sacrificed at 14 days
# Method: To examine the potential therapeutic effects of systemic administration of pro-resolving mediators in acute vascular injury, a standardized mouse model of carotid ligation was employed. FVB Mice (N=23) were treated with intraperitoneal administration of RvD2 (100 ng/dose), 7R Mar-1 (100 ng/dose) or vehicle on days 0 (4 hrs prior to carotid injury), 1, 3, 5 and 7. Total dose received was 500 ng/mouse. Unilateral carotid ligation was performed as a standardized model of vascular injury, induced by low shear. Animals were then sacrificed at 14 days and perfusion-fixed vessels explanted for analysis. Following elastin staining, neointima (NI) and medial (M) compartments were measured by a blinded observer, and ratios (area and average wall thickness) calculated. Analysis was performed at mid CCA level (2.5 mm from ligature).
# FIG. 22. (A)-(C), depict a cross-section of a carotid artery at mid CCA level (2.5 mm from ligature) from carotid ligation mouse model administered vehicle (A), RvD2 (B), or 7R-Mar-1 (C). (D)-(E) depict NUM ratio of the cross-section of the carotid artery at mid CCA level from carotid ligation mouse model administered vehicle, RvD2, or 7R-Mar-1. […]
# p65 subunit = experiment: Nuclear translocation of p65 subunit in sv-VSMCs (immunofluorescence); assay type: cell-based, human; details: 100 nm, 30 min; TNFα 10 ng/ml 2 hrs
# Method: Immunofluorescence for p65 (RelA): 15000 VSMCs or 30000 ECs were seeded on a 8-well chamber slide. Cells received 30 min of Maresin-1 pretreatment, followed by TNF-α for 2 hr. Cells were fixed in 2% paraformaldehyde, followed by permeabilization with ice-cold acetone (10 min) and 1% Triton X-100 (20 min). Cells were incubated overnight in a humidified chamber with anti-p65 antibody (Santa Cruz Biotechnology Inc.) followed by Alexa-fluor 488 tagged secondary antibody (Life Technologies) and were visualized under a fluorescent microscope.
# FIGS. 16A-16D. VSMCs were grown in chamber slides and treated with vehicle or 100 nm of 7S or 7R-Maresin-1 with/without 10 ng/ml pertussis toxin for 30 min, followed by TNFα (10 ng/ml) for 2 hrs. Cells were fixed and subsequently stained with anti-p65 (Santa Cruz Biotechnology) and secondary antibodies (Alexa-488). (A-D) Representative images of Ctrl (A), TNFα (B), 7R-Maresin-1+TNFα (C) and 7R-Maresin-1+pertussis toxin (10 ng/ml)+TNFα. (E) Mean fluorescence of nucleus and cytoplasm were quantified from all groups and the net result of the ratio of nucleus over cytoplasmic mean fluorescence is depicted in the bar graph, as a measure of relative p65 nuclear translocation. (N>=3). […]
# MCP-1 = MCP-1 expression in TNF-α stimulated VSMCs by qRT-PCR; assay type: cell-based, human; details: 10, 100 nM; TNF-α 10 ng/ml 18 hours; P<0.05
# Method: FIGS. 15A-15D. Representative images of Calcein-AM labeled U937 monocytes adhered to human sv-VSMCs pretreated with vehicle (A, B) or 7S-Maresin-1 (C) or 7S-Maresin-1 and pertussis toxin (D) for 30 min, followed by TNFα at 10 ng/ml for 4 hr (B, C, D). (E) Quantitative analysis of U937 adhesion assay in human sv-VSMCs and (F) human sv-ECs (1 ng/ml TNFα used for EC cells). P≤0.05, One-way ANOVA with Dunnett's post hoc test. *: P≤0.05 compared to control, unpaired t-test. †: P≤0.05 compared to TNFα, unpaired t-test. ‡: P≤0.05 compared to TNFα+7S-Maresin-1, unpaired t-test. (G) VSMCs were pretreated with 7S-Maresin-1 or vehicle for 30 min, followed by TNFα at 10 ng/ml for 4 hr. Whole cell lysates were blotted for VCAM-1 (Pierce Inc.) and beta-actin (Sigma). VCAM-1 and beta-actin western blotting image is representative of three independent experiments. Bar graph represents net quantitative densitometry analysis. N=3. P=0.06, One-way ANOVA with Kruskal Wallis nonparametric test. P=0.07 of TNFα, compared to control, Mann Whitney test. P=0.20 of 7S-Maresin-1 at 10 nm and 100 nm compared to TNFα, Mann Whitney test. Error bars: SEM. […] Expression of MCP-1 was measured by qRT-PCR, and normalized to unstimulated cells (n=3, results are mean±SEM, P<0.05 for Mar-1 (10 and 100 nM) vs TNF alone, unpaired t-test).
structure (smiles),measurement,setting,value
"CC/C=C\C/C=C\C[C@@H](O)\C=C/C=C/C=C/[C@@H](O)C/C=C\CCC(=O)O [7R-Maresin-1, 7R,14S-dihydroxydocosa-4Z,8E,10E,12Z,16Z,19Z-hexaenoic acid]",TNFα induced phosphorylation of IKKα/β subunit in human sv-ECs,IKKα/β subunit [1],Reduce
same,TNF-α-induced superoxide production in VSMC,[2],Reduce
same,TNFα induced phosphorylation of IKKα/β subunit in human sv-VSMCs,IKKα/β subunit [3],Reduce
same,neointima formation following carotid artery ligation,carotid artery,Reduces
same,nuclear translocation of p65 subunit in human sv-VSMCs,p65 subunit,Inhibit
"CC/C=C\C/C=C\CC(O)\C=C/C=C/C=C/C(O)C/C=C\CCC(=O)O (stereo not drawn) [Mar-1, maresin 1 (7, 14-dihydroxy DHA)]",MCP-1 expression by TNF-α stimulated VSMCs,MCP-1,reduced
